Data reported in patent US12144791B2, “KRAS agonists, pharmaceutical compositions, and uses in managing cancer” (Emory University, priority 2019, dated 2024).
Entries after “also recorded” stand apart in the source; their conditions may differ.

Assays:
KRAS = test: KRAS-GTP pull-down by Raf-1-RBD and Western blot in lung cancer cell lines; assay type: cell-based, human; conditions: 48 h
Description: “0” means DMSO vehicle control. […] Expression levels of KRAS, pERK, active caspase 3, PARP cleavage, Beclin1, LC3-I and LC3-II in total lysate were analyzed by Western blot.
A library containing small molecules from the National Cancer Institute (NCI) was employed to dock the GTP/GDP binding pocket of KRAS (PDB ID code: 4EPT) using the University of California, San Francisco (UCSF) DOCK 6.1 program suite. The small molecules were ranked according to their energy scores. Top 500 small molecules with predicted binding energies were selected for screening of cytotoxicity in human lung cancer cells by sulforhodamine B (SRB) assay. […] This lead compound was named KRAS agonist-533 (KRA-533) (FIG. 1A). To test whether KRA-533 regulates KRAS activity in lung cancer cells, human lung cancer cell lines with or without KRAS mutation were treated with KRA-533 (10 μM) for 48 h. […] Cell proliferation was also measured following treatment of cells for 48 h using MTS Cell Proliferation Colorimetric Assay Kit.
Activated KRAS can trigger cell death via apoptosis and autophagy-associated cell death in cancer cells. To test whether KRA-533- activated KRAS promotes apoptosis and autophagic cell death, A549, H157, Calu-1 and H292 cells were treated with increasing concentrations of KRA-533 for 48 h, followed by analysis of KRAS activity, apoptosis and autophagy. […] Autophagy was measured by analysis of LC3-I/LC3-II and p62 following treatment of cells with KRA-533. It is well known that p62 is an autophagy receptor or substrate that can be degraded by autophagy. In addition to LC3-II, p62 was analyzed as another autophagy marker. […] To further quantify the level of autophagy, a GFP-LC3 construct was used to indicate autophagosomes. After treatment with KRA-533, GFP-LC3 redistributed from a diffuse staining pattern in the cytoplasm and nucleus to a cytoplasmic punctate structure that specifically labels pre-autophagosomal and autophagosomal membranes (i.e. GFP-LC3 vac cells). […] These findings indicate that, in addition to apoptosis, KRA-533 can also induce autophagic cell death.

KRAS G12D = KRAS G12D (Homo sapiens, UniProt P01116, G12D); test: Thermal shift assay, purified KRAS G12D; assay type: binding; conditions: increasing concentrations
Description: Melting temperature (Tm) values of DMSO Ctrl and 15 μM of KRA-533 are shown.
(§1) To test whether KRA-533 directly binds to KRAS, a thermal shift assay was employed. […] To further assess whether KRA-533 activates KRAS directly, an in vitro cell-free GDP-GTP exchange experiment was carried out. Purified WT, G12C, G12D or G13D mutant KRAS proteins were incubated with purified GEF (RASGRP1) and GAP (RASA1) proteins in reaction buffer containing [γ-35S]-GTP in the absence or presence of increasing concentrations of KRA-533 at 25° C. for 60 min. KRAS activity was quantified by liquid scintillation counting. […] These findings indicate that KRA-533 not only activates WT KRAS but also has the capacity to further enhance KRAS activity of mutant KRAS.

KRAS S17A/K117A (AA) = target: T1, KRAS S17A/K117A (AA) (Homo sapiens, UniProt P01116, K117A/S17A); test: Thermal shift assay, purified KRAS S17A/K117A (AA); assay type: binding
T1 construct: made in house
Description: Melting temperature (Tm) values of DMSO control and 15 μM KRA-533 are shown.
(§2) To further test this intracellularly, GFP-tagged WT, S17A, K117A and AA KRAS mutants were exogenously transfected into A549 cells. […] Activities of exogenous GFP-tagged WT and KRAS mutants were analyzed by Western blot using GFP antibody.

WT KRAS = WT KRAS (Homo sapiens, UniProt P01116); test: In vitro cell-free GDP-GTP exchange, WT KRAS; assay type: biochemical; conditions: with GEF (RASGRP1) and GAP (RASA1), 25° C., 60 min
Description: GTPγS, purified GFP (RASGRP1, 180 nM) and GAP (RASA1, 180 nM) at 25° C. in the presence or absence of increasing concentrations of KRA-533.
GTPγS, purified GFP (RASGRP1, 180 nM) and GAP (RASA1, 180 nM) at 25° C. in the presence or absence of 15 μM KRA-533. The radioactivity remaining on the protein after intensive washing was quantified by liquid scintillation.
as §1, §2

GFP-tagged KRAS WT = target: T2, GFP-tagged KRAS WT (Homo sapiens, UniProt P01116); test: Raf-1-RBD pull-down of exogenous GFP-tagged KRAS WT in A549 cells; assay type: cell-based; conditions: 15 μM, 48 h
T2 construct: expressed in transfected cells; host or cells: A549
Description: The GFP-tagged exogenous KRAS-GTP (GFP-KRAS-GTP) was analyzed by Western blot using anti-GFP antibody.
as §2

A549 cells = test: Apoptotic and autophagic cell death after KRAS shRNA knockdown; assay type: cell-based, human; conditions: G12S mutant KRAS depleted by KRAS shRNA; 15 μM, 48 h
Description: To further test whether KRAS is a required target for KRA-533 to induce apoptotic and autophagic cell death, G12S mutant KRAS was depleted using KRAS shRNA from A549 cells, followed by treatment with KRA-533 (15 μM) for 48 h.

[1] = test system: lung tumors of LSL-KRASG12D LKB1fl/fl (KL) mice; test: Genetically engineered LSL-KRASG12D LKB1fl/fl (KL) mouse model; assay type: in vivo
Description: After administration of adenovirus Cre recombinase in KL mice for 6 weeks, mice were treated with KRA-533 (20 mg/kg/d) for 8 weeks (n=6 each group). Survival of mice was calculated up to 8 weeks before euthanization in the control group versus the KRA-533 treatment group.
It is reported that the co-occurrence of KRAS and LKB1(STK11) mutations could label a more aggressive molecular subtype of NSCLC. Around half of KRAS-mutant lung cancer patients also carry LKB1 mutations, therefore, it will be important to test whether KRA-533 is also effective for the treatment of KRAS-mutant lung cancers with mutation or loss. LSL-KRASG12D LKB1fl/fl (KL) mice were generated by intercrossing B6.129S4-Krastm3Tyj/J (KRASG12D) and FVB; 129S6-Stk11tm1Rdp/Nci (LKB1) strains two generations and genotyped to confirm homozygosity for the LKB1 allele. These mice contain a KRASG12D LSL knock-in allele and a floxed allele of LKB1 (LKB1fl/fl). KRA-533 (20 mg/kg/d) or vehicle control was administered i.p. starting at 6 weeks post AdeCre delivery. After treatment for 8 weeks, mice were euthanized, and lung tumors were analyzed as described above.

O=C(CBr)NCCCCc1ccc(C(=O)O)cc1 [KRA-533, 4-(4-(2-bromoacetamido)butyl)benzoic acid]
KRAS activity, cell lines bearing KRAS mutation versus without (KRAS; 10 μM): enhanced KRAS activity to a greater extent in cell lines bearing KRAS mutation than in cell lines without KRAS mutation | KRAS activity (GTP-KRAS pulled down by Raf-1-RBD) (KRAS; 10 μM, human lung cancer cell lines with or without KRAS mutation): enhanced KRAS activity in most human lung cancer cell lines tested, except H292 | KRAS activity (KRAS-GTP), dose response (KRAS; A549, H157, Calu-1 and H292 cells, 0, 5, 10, 15 μM): enhanced KRAS activity in a dose-dependent manner | melting temperature (Tm) / binding, KRAS G12D (KRAS G12D): Dose dependent increases in melting temperature (Tm) | binding (thermal shift), AA (S17A/K117A) KRAS (KRAS S17A/K117A (AA)): failed to bind | KRAS activity (liquid scintillation), WT KRAS (WT KRAS): activated WT KRAS to increase its activity in a dose-dependent manner; also recorded: directly activated | activity of exogenous GFP-tagged WT KRAS (GFP-KRAS-GTP) (GFP-tagged KRAS WT): activated exogenous WT and S17A | cell sensitivity to apoptotic and autophagic cell death after knockdown of mutant KRAS (A549 cells): significantly reduced cell sensitivity to the induction of apoptotic and autophagic cell death | tumor growth ([1]; 20 mg/kg/d i.p. from 6 weeks post AdeCre, 8 weeks): significantly suppressed tumor growth | survival ([1]; 20 mg/kg/d i.p., up to 8 weeks): prolonged survival
